The test system of this assay is MDA-MB-435 tumor-bearing mice. Description: Small animal PET, organ uptake in orthotopic MDA-MB-435 tumor-bearing mice. Type of assay: in vivo, athymic nude mice. The settings on record: co-injection with excess (0.5 μmol, 300 μg) c(RGDfk), 0.5 h.

The results in this text go back to article PMC3059404 (Bioconjugate chemistry, 2011).

On to “4-^18F-fluoro-3-trifluoromethylbenzoyl-E[c(RGDfk)2] [^18F-4]”, for which the “reduction of tumor uptake by blocking” value came out at 82%.
